ChEMBL document CHEMBL5465560, “Selectivity Literature for EUbOPEN Chemogenomic Library” (2024)
Blank lines part the entries; values can stand above or below the compound they belong to.

Legend:
[1] = target: T1, Inhibitor of nuclear factor kappa-B kinase subunit epsilon (Homo sapiens) (UniProt Q14164); test: Selectivity interaction (Kinase panel (Z-LYTE Assay)) EUB0001632a IKBKE; conditions: at 10 µM
T1 sequence (whole entry): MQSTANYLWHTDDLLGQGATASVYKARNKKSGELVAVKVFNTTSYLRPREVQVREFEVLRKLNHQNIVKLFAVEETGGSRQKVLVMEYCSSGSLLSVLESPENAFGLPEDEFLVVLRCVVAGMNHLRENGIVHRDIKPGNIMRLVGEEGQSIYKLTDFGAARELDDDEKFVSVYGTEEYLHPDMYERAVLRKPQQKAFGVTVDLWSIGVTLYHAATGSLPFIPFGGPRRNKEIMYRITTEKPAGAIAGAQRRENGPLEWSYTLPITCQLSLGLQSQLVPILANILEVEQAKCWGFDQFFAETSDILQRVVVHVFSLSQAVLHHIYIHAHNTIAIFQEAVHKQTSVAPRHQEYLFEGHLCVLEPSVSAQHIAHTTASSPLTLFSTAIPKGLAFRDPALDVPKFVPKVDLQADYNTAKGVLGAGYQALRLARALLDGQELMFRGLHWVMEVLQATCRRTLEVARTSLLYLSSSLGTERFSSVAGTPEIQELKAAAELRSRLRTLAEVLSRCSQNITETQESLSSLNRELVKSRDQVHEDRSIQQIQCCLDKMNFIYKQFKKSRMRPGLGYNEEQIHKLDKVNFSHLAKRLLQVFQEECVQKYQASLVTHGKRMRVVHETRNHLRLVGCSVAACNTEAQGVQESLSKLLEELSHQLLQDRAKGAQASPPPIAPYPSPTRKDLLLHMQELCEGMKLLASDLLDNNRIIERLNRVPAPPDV

[2] = Selectivity interaction (Androgen receptor agonist/antagonist FRET assay, rat recombinant ) EUB0000877a AR
[3] = target: Histone-lysine N-methyltransferase 2A (Homo sapiens) (UniProt Q03164); test: Selectivity interaction (Methyltransferase screen (radiometric assays, panel of 8 PRMTs, 21 protein lysine methyltransferases, 3 DNA methyltransferases, and one RNA methyltransferase)) EUB0000271b MLL
Histone-lysine N-methyltransferase 2A (Homo sapiens), sequence (Q03164 1-2718 limits assumed): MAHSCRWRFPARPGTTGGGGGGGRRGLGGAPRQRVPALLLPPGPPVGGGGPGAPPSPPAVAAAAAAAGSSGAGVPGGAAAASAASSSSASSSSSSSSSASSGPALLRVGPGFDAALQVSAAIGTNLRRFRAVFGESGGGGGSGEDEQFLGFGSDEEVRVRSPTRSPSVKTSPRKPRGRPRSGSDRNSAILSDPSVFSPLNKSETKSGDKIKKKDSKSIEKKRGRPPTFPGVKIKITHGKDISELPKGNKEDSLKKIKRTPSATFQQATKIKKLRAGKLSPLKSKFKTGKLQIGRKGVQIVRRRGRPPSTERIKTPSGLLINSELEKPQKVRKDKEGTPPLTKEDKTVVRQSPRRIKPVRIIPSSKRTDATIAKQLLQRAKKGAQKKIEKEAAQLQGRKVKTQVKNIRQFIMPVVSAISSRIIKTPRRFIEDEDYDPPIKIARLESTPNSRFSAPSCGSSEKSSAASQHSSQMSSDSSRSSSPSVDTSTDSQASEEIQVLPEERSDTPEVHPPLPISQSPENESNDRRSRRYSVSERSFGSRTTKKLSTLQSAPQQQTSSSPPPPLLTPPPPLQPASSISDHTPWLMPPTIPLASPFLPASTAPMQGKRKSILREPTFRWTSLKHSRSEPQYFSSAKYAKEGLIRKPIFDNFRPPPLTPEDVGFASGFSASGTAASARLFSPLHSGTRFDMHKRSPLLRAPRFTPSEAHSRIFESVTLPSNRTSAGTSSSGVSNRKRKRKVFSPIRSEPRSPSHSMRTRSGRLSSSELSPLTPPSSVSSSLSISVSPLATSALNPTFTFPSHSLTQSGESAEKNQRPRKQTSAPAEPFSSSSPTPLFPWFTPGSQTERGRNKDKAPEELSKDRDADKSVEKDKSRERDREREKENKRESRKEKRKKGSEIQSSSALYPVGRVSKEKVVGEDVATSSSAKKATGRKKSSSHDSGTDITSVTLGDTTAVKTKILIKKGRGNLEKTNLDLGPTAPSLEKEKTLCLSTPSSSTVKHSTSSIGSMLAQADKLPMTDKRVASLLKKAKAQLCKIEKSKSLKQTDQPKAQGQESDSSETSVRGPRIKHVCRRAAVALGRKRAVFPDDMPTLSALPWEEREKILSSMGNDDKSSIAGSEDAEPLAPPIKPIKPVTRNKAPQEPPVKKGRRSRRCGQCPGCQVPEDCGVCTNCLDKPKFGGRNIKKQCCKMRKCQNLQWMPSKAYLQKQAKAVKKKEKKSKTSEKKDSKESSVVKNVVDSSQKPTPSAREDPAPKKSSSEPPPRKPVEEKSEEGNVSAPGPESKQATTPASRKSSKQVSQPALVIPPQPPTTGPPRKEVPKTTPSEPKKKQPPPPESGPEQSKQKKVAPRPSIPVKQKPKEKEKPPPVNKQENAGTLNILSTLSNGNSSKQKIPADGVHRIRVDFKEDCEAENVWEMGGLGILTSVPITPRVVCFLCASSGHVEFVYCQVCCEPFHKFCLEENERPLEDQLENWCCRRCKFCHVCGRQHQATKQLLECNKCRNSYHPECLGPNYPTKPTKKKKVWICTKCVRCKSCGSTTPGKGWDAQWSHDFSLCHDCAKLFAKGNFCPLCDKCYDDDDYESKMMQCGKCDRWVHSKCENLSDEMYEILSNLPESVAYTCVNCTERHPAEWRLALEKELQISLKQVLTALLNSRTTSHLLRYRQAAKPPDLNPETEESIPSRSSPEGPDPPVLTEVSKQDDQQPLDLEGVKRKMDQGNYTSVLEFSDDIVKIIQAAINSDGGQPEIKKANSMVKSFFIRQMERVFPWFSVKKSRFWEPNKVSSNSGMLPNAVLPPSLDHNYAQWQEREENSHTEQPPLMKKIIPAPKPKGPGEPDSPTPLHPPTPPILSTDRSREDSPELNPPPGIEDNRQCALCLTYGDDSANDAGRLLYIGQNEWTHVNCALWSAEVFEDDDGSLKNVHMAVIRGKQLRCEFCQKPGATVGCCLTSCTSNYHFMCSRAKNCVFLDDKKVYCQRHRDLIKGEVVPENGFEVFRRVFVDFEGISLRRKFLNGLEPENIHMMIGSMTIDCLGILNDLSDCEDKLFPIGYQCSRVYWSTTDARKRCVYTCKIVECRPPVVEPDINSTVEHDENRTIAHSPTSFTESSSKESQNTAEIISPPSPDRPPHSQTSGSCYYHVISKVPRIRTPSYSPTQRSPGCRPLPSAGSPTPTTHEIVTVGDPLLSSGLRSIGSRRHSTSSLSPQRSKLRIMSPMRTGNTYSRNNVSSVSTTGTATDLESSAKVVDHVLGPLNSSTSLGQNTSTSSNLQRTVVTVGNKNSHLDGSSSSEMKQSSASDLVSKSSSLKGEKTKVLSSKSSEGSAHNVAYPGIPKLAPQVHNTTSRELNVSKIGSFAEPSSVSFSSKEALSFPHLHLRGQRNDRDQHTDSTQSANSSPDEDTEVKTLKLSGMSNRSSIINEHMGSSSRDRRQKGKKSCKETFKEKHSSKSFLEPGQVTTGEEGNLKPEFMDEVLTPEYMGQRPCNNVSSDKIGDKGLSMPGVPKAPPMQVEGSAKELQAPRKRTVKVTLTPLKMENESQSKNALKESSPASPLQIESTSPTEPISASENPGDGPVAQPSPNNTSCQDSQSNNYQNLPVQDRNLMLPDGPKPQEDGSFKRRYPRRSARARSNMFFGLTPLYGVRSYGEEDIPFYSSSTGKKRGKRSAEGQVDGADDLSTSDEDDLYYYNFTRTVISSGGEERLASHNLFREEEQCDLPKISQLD
Histone-lysine N-methyltransferase 2A (Homo sapiens), sequence (Q03164 2719-3969 limits assumed): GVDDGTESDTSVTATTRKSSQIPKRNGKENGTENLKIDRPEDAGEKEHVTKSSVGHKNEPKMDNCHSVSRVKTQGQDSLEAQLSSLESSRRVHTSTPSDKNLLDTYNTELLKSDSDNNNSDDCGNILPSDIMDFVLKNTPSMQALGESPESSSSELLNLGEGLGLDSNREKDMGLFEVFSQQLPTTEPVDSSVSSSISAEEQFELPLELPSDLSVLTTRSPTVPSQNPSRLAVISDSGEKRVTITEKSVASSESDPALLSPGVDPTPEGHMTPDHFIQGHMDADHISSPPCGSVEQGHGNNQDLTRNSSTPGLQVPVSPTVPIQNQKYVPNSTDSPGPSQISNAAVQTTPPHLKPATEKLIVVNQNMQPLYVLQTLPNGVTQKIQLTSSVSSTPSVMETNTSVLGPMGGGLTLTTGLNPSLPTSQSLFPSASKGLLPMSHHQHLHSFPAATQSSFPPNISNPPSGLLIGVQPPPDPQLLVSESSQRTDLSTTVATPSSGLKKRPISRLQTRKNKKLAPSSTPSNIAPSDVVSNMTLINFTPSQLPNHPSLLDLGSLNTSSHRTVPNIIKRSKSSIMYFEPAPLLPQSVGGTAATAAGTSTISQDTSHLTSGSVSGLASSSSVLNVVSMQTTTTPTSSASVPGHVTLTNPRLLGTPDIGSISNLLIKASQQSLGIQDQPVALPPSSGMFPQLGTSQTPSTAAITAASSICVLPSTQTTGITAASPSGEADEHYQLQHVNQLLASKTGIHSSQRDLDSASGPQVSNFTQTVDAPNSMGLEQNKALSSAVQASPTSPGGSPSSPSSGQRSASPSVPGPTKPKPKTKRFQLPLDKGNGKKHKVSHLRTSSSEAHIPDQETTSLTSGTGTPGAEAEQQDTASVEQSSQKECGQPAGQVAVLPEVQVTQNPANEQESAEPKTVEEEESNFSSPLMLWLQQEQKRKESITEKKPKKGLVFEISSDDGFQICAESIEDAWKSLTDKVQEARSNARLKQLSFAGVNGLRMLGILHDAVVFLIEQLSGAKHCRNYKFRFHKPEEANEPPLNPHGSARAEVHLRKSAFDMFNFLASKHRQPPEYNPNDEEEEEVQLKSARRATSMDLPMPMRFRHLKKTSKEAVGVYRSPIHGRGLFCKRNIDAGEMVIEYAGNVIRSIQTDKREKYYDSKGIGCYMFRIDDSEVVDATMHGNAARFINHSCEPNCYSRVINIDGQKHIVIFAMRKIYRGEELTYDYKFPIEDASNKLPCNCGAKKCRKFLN

[4] = target: Tyrosine-protein kinase Lck (Homo sapiens, UniProt P06239); test: Selectivity interaction (KinomeScan (DiscoverX)) EUB0000695a LCK; conditions: at 100 nM
Tyrosine-protein kinase Lck, sequence (P06239 2-509 limits assumed): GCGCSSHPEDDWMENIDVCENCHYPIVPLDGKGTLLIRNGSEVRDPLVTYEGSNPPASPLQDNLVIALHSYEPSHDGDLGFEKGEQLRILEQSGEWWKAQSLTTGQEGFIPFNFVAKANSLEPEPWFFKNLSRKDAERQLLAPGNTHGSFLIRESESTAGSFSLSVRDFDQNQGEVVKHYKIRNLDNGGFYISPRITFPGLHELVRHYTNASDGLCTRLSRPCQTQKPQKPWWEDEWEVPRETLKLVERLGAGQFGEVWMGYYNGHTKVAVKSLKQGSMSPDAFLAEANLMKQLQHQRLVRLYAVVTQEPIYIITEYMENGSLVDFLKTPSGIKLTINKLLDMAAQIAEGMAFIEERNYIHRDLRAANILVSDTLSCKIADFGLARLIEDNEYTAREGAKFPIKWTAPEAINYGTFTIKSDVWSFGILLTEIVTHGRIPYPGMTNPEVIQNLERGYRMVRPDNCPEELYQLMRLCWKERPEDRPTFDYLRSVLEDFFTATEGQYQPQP

[5] = target: Serine/threonine-protein kinase 38 (Homo sapiens) (UniProt Q15208); test: Selectivity interaction (KinomeScan (DiscoverX)) EUB0000655a STK38; conditions: at 10 µM
Serine/threonine-protein kinase 38 (Homo sapiens), sequence (Q15208 2-465 limits assumed): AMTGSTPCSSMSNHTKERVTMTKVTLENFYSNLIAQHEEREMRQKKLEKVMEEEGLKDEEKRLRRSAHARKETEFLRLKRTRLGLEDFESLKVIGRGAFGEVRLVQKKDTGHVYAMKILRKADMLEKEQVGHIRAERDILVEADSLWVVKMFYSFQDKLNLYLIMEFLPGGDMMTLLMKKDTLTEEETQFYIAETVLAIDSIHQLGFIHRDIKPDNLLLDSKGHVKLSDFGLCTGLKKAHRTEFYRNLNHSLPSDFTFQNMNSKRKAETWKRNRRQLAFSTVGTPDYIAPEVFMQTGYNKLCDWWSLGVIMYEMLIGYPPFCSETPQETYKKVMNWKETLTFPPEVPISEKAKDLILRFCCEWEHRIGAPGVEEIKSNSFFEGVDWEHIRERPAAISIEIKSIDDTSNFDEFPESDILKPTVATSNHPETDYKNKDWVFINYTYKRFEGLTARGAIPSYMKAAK

[6] = target: Tyrosine-protein kinase receptor UFO (Homo sapiens) (UniProt P30530); test: Selectivity interaction (KinomeScan (DiscoverX)) EUB0001079a AXL; conditions: at 1 µM
[7] = target: T2, Serine/threonine-protein kinase Nek11 (Homo sapiens) (UniProt Q8NG66); test: Selectivity interaction (KinomeScan (DiscoverX)) EUB0001619a NEK11; conditions: at 1 µM
T2 sequence (whole entry): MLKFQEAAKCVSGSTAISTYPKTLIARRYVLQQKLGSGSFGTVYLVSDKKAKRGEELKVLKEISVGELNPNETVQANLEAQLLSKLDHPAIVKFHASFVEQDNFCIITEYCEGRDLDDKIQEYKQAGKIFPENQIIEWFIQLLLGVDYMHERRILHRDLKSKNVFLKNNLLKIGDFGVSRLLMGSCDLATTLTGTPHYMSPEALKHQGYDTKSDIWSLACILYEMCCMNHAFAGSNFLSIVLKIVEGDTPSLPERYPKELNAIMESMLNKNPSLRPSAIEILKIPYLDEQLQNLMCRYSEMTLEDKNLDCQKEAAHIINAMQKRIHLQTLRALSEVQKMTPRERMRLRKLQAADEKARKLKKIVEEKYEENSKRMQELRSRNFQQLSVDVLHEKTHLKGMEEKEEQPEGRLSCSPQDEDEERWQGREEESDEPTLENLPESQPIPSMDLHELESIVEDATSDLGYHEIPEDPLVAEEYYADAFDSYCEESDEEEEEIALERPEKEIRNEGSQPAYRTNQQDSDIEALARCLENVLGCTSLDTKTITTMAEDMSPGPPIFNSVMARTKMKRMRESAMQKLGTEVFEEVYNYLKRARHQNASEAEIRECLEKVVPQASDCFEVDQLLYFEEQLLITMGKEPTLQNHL

% of control [1]: 2.49%
SMILES: Cn1cc(-n2cnc3c(NCc4nc5cc(Cl)c(Cl)cc5[nH]4)nc(N4CCOCC4)nc32)cn1

IC50 [2]: > 30 µM
SMILES: CCC(=O)N1CC[C@H](Nc2ncnc3c2CN(c2cnc(OC)c(C(F)(F)F)c2)CC3)C1 [LENIOLISIB]

SMILES: Cc1cc(C)cc([C@@H]2c3cc(C)ccc3NC(=O)CN2C(=O)c2ccc(Br)s2)c1
% of activity ([3]; at 1 µM): 99.7%
% of activity ([3]; at 10 µM): 103%

SMILES: Cc1cc(F)c(C(=O)Nc2cccc(-c3nncn3C(C)C)n2)cc1-n1cnc(C2CC2)c1
% of control [4]: 86%

SMILES: CN(C)CCOc1ccc(-c2nc(-c3ccncc3)c(-c3ccc4c(c3)CC/C4=N\O)[nH]2)cc1
% of control [5]: 90%

SMILES: Nc1cnc(N2CCc3cc(S(=O)(=O)Nc4c(F)cc(Cl)cc4F)cc(N4CCCC4=O)c32)nc1 [TP-020n]
% of control [6]: 69%

SMILES: N#Cc1cccc(-c2c[nH]c3ncnc(N4CCOCC4)c23)c1
% of control [7]: 100%
